Peptide text beside a SMILES is read from it. * marks the point of attachment. Fmoc = O=C(OCC1c2ccccc2-c2ccccc21)*
Columns and labels:
Type in all cases: cell-based
[1] = system: human adult dermal fibroblast; test: 3D culture inside peptide gels, cell shape; settings: 10 mM/L gel, cells seeded inside the gel
Method: With 10 mM/L Fmoc-Phe-Phe-OH self-assembled hydrogels, human adult dermal fibroblast were also seeded 3 dimensionally (3D culture) inside the peptide gels. […] Despite proliferation, whether ECM components (proteins and saccharides) were synthesized and secreted by these cells is another way to justify cells' reaction to the material. However, viability of the cells is of necessity to maintain a steady ECM secretion or to restore proliferation after possible cell spreading at later time points.

Human dermal fibroblasts = test: Cell phenotype and size comparison in RGD/RGE-containing hydrogels (inverted optic microscope); settings: after 24 hours, 3D culture, 1 mM/L RGD or RGE peptide with Fmoc-Phe-Phe-OH
Method: Fmoc-SEQ. ID. NO. 1-OH (Fmoc-SEQ. ID. NO. 1) adhesion motifs were introduced to tackle the issue of un-spreaded cells in Fmoc-Phe-Phe-OH gels therefore to induce spreading and focal adhesion of dermal fibroblasts in these self-assembled peptide hydrogels. Fmoc-Phe-Phe-OH and Fmoc-Phe-Phe-OH+Fmoc-SEQ. ID. NO. 2-OH (Fmoc-SEQ. ID. NO. 2) combination were set as comparisons.
0.0014 grams of Fmoc-SEQ. ID. NO. 1or Fmoc-SEQ. ID. NO. 2(1 mM/L in later hydrogels), were weighed and mixed with 0.0107 grams Fmoc-Phe-Phe-OH respectively into glass vials, and 0.0107 grams Fmoc-Phe-Phe-OH alone was weighed as well. The above peptide and peptide mixtures were sterilized for 30 minutes by an ultraviolet light exposure with bottles of distilled water, filtered NaOH (Sodium Hydroxide, 0.5 M/L), filtered HCl (Hydrochloric Acid, 0.5 M/L), and relevant apparatus (spatulas, pipettes, Vortex). 2 mL of the sterile distilled water was then added into each glass vial of Fmoc-Phe-Phe-OH, Fmoc-Phe-Phe-OH+Fmoc-SEQ. ID. NO. 1, and Fmoc-Phe-Phe-OH+Fmoc-SEQ. ID. NO. 2, and the mixtures were vortexed for a few seconds to create suspensions. […] The basic peptide solutions (pH around 10) were finally neutralized to pH 7 by dropwise addition of HCl and pH values were monitored by a pH meter with a micro-probe. […]

bovine chondrocytes = test: Culture of chondrocytes on/in hydrogel scaffold (proliferation and retention of phenotype); settings: cell culture of up to 7 days
Method: Bovine chondrocytes were isolated from cartilage of the proximal side of the metacarpalphalangeal joint, washed in PBS and incubated overnight in Dulbeccos Modified Eagles Medium (DMEM) supplemented with 10% foetal calf serum, 100 units ml^−1 penicillin/streptomycin and 0.85 mM ascorbic acid. The cartilage was finely chopped and incubated with pronase type E (700 units ml^−1) (BDH Ltd., Poole, UK) in medium for 2 h followed by collagenase type 1a (300 units ml^−1) (SIGMA-ALDRICH Co. Ltd., Poole, UK) in medium for 2 h. The cell suspension was centrifuged at 1500 rpm for 5 min to pellet the cells. The cells were washed twice in medium and seeded directly onto the peptide scaffolds (and tissue culture plastic control) or encapsulated within the scaffolds during the gelation stage at a cell density of 5×10^5 ml^−1 in medium. The cultures were maintained in an incubator at 37° C. with a humidified atmosphere of 5% CO2 for up to 4 weeks. Chondrocytes were used up to passage 5.
Finally, all three gels prepared (ie. entries 1, 2 and 3) were tested for their ability to support proliferation and retention of phenotype of bovine chondrocytes. […]
The rounded cell shape is the typical phenotype for chondrocytes. […] Two-photon fluorescence microscopy was used to observe samples stained with DAPI, a fluorescent nucleic acid stain that enables visualisation of cell nuclei.

[2] = system: Human mesenchymal stem cells (MSCs); test: PCR gene expression of cells cultured in gels for 14 days; settings: after 14 days
Method: Human mesenchymal stem cells (MSCs) were isolated from bone marrow taken from patients (with both patient and ethical consent) undergoing hip replacement surgery.A HISTOPAQUE (SIGMA-ALDRICH) gradient was used to isolate mononuclear cells and these cells were cultured in monolayer with α-MEM (with 10% heat-inactivated foetal calf serum, 100 U/ml streptomycin/penicillin and 0.85 mM ascorbic acid) under standard culture conditions (humidified atmostphere, 37° C., 5% CO2). After 5 days non-adherent cells were removed by washing with media.
At 80% confluence in passage 3 the MSCs were trypsinised and a cell count was performed. A suitable number of cells were centrifuged at 400 g for 5 minutes and then resuspended in a 10 mM Fmoc-Phe-Phe solution to a final concentration of 4×10^6 cells/ml. The cell suspension was mixed to ensure even cell distribution and 200 μl layers were pipetted into high pore density (0.4 μm pore size) cell culture inserts in 24-well plates. Media (α-MEM as previously described) was added gently to both the well and the insert and gels were allowed to polymerise.
The cell-seeded gels were then cultured under standard conditions for 14 days with media changed every 2 days. Following culture 1 ml of TRIZOL was added to each insert and the gels disrupted by pipetting. A modified RNA extraction procedure was performed combining both the TRIZOL and PURELINK (INVITROGEN) extraction procedures. RNA was reverse transcribed to cDNA using SUPERSCRIPT II (INVITROGEN) and PCR performed using a standard HOTSTARTAQ (QIAGEN) procedure for the house-keeping gene GAPDH as well as the transcription factor SOX-9, aggrecan and collagen types I and II.
PCR products were run on a 1.5% agarose gel containing ethidium bromide and visualised on a UV-transilluminator.

Structure (SMILES): O=C(N[C@@H](Cc1ccccc1)C(=O)N[C@@H](Cc1ccccc1)C(=O)O)OCC1c2ccccc2-c2ccccc21 [Entry 1, Fmoc-Phe-Phe-OH] (Fmoc-Phe-Phe-OH)
- cell shape in 3D culture [1]: oval to round cell shape remained for a long term
- average cell size (Human dermal fibroblasts): around 20 microns
- retention of morphological phenotype and proliferation of chondrocytes (bovine chondrocytes): cell morphological phenotype is retained
- cell viability (from gene expression) [2]: viable cells present
- expression of GAPDH ([2]; 10 mM gel): expression
- expression of SOX-9 ([2]; 10 mM gel): lack of expression
- expression of aggrecan ([2]; 10 mM gel): lack of expression
- expression of type I collagen ([2]; 10 mM gel): expression
- expression of type II collagen ([2]; 10 mM gel): lack of expression
